From ChEMBL document CHEMBL4190187, “Discovery of pyrazolopyrimidine derivatives as novel inhibitors of ataxia telangiectasia and rad3 related protein (ATR)” (Bioorg Med Chem Lett, 2017)

What was measured:
[1] = molecular target: Vascular endothelial growth factor receptor 2 (Homo sapiens) (UniProt P35968); assay: Inhibition of recombinant human KDR (790 to end residues) at 1 uM using myelin basic protein as substrate after 40 mins in presence of [gamma-33P]ATP by scintillation counting method
[2] = molecular target: Tyrosine-protein kinase BTK (Homo sapiens, UniProt Q06187); assay: Inhibition of recombinant full-length human BTK at 1 uM using KVEKIGEGTYGVVYK as substrate after 40 mins in presence of [gamma-33P]ATP by scintillation counting method
[3] = molecular target: Fibroblast growth factor receptor 2 (Homo sapiens) (UniProt P21802); assay: Inhibition of recombinant human FGFR2 (456 to 770 residues) at 1 uM using poly(Glu,Tyr) 4:1 as substrate after 40 mins in presence of [gamma-33P]ATP by scintillation counting method
[4] = molecular target: Serine/threonine-protein kinase PAK 1 (Homo sapiens) (UniProt Q13153); assay: Inhibition of recombinant human PAK1 (150 to end residues) at 1 uM using RRRLSFAEPG as substrate after 40 mins in presence of [gamma-33P]ATP by scintillation counting method
[5] = molecular target: CDK7/Cyclin H/MNAT1 (Homo sapiens) (UniProt P51946+P50613+P51948); assay: Inhibition of recombinant full-length human CDK7/CyclinH/MAT1 at 1 uM using peptide as substrate after 40 mins in presence of [gamma-33P]ATP by scintillation counting method; assay type: protein-complex assay
[6] = molecular target: Tyrosine-protein kinase Mer (Homo sapiens) (UniProt Q12866); assay: Inhibition of recombinant human MER (557 to 882 residues) at 1 uM using GGMEDIYFEFMGGKKK as substrate after 40 mins in presence of [gamma-33P]ATP by scintillation counting method
Chain of Tyrosine-protein kinase Mer (Homo sapiens) (Q12866 whole entry, the tested form may be a part): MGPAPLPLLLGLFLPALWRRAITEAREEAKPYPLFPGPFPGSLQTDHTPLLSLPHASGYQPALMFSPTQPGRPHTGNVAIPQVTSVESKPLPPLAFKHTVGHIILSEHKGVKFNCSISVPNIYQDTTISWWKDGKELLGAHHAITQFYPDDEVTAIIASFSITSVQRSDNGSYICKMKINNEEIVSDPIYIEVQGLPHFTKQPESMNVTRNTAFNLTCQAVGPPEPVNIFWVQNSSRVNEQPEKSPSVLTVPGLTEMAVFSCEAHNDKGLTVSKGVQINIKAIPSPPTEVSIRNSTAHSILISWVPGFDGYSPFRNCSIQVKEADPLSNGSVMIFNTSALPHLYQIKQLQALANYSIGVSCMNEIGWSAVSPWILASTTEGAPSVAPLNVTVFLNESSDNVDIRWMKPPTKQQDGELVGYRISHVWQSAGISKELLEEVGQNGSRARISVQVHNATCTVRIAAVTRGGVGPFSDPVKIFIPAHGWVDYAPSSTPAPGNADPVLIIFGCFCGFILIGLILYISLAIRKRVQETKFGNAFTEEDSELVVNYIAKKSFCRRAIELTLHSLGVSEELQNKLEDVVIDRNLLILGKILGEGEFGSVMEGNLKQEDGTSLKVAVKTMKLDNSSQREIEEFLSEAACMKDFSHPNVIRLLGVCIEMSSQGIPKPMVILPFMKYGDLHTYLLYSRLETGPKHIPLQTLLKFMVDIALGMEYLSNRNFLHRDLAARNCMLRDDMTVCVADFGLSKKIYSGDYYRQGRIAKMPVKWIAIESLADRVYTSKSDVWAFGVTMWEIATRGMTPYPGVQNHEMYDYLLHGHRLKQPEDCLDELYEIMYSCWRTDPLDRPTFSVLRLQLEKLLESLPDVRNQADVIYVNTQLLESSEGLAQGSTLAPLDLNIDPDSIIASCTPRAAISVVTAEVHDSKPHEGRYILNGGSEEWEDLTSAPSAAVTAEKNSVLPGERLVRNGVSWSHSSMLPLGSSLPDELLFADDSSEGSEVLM

[7] = molecular target: Serine/threonine-protein kinase 33 (Homo sapiens) (UniProt Q9BYT3); assay: Inhibition of recombinant full-length human STK33 at 1 uM using myelin basic protein as substrate after 40 mins in presence of [gamma-33P]ATP by scintillation counting method
Chain of Serine/threonine-protein kinase 33 (Homo sapiens) (Q9BYT3 whole entry, looked up): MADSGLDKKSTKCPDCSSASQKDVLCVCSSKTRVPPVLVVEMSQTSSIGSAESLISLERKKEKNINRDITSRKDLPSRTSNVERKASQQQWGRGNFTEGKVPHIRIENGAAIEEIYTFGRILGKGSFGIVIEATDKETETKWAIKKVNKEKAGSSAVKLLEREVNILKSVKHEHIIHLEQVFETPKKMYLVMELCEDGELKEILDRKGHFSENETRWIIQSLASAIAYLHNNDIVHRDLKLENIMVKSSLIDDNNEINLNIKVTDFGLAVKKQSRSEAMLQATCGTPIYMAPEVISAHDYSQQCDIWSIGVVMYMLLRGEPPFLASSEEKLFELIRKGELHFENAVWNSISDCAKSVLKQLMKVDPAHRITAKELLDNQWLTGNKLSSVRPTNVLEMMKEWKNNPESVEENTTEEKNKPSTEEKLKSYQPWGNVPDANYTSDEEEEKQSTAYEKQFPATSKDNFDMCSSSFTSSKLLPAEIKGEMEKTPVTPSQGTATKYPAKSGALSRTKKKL

[8] = molecular target: Insulin-like growth factor 1 receptor (Homo sapiens) (UniProt P08069); assay: Inhibition of recombinant human activated IGF-1R (959 to end residues) at 1 uM using KKKSPGEYVNIEFG as substrate after 40 mins in presence of [gamma-33P]ATP by scintillation counting method
[9] = molecular target: Serine/threonine-protein kinase ULK1 (Homo sapiens) (UniProt O75385); assay: Inhibition of recombinant human ULK1 (1 to 314 residues) at 1 uM using casein as substrate after 40 mins in presence of [gamma-33P]ATP by scintillation counting method
[10] = molecular target: Ephrin type-A receptor 3 (Homo sapiens) (UniProt P29320); assay: Inhibition of recombinant human EPHA3 (578 to end residues) at 1 uM using poly(Glu,Tyr) 4:1 as substrate after 40 mins in presence of [gamma-33P]ATP by scintillation counting method
Chain of Ephrin type-A receptor 3 (Homo sapiens) (P29320 whole entry, the tested form may be a part): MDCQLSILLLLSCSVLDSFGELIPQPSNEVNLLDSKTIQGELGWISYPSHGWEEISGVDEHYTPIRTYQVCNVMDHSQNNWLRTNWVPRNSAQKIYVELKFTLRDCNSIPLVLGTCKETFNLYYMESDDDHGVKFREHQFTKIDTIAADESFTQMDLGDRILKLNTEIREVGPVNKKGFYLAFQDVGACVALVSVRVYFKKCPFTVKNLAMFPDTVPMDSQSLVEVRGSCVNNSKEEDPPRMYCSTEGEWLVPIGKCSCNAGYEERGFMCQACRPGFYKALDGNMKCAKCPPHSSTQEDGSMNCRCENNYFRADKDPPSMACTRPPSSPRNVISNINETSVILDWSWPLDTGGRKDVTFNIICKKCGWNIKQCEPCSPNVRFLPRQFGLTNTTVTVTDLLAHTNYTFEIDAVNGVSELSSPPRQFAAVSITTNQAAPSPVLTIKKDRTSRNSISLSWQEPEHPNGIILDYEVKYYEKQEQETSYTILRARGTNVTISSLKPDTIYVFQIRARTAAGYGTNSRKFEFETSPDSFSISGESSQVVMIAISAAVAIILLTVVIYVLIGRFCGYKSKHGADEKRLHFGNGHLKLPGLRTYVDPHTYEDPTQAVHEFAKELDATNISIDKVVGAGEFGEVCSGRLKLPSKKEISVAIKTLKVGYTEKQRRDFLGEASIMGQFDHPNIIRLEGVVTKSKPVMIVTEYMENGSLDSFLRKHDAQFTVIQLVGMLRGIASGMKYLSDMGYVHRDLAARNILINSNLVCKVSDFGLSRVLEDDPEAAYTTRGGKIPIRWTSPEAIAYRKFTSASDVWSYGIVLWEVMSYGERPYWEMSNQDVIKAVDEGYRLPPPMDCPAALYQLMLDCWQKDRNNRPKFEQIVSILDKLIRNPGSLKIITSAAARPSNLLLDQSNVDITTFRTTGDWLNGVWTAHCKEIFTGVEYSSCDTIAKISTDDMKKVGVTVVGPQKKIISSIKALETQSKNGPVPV

[11] = molecular target: Fibroblast growth factor receptor 3 (Homo sapiens) (UniProt P22607); assay: Inhibition of recombinant human FGFR3 (447 to 761 residues) at 1 uM using poly(Glu,Tyr) 4:1 as substrate after 40 mins in presence of [gamma-33P]ATP by scintillation counting method
Chain of Fibroblast growth factor receptor 3 (Homo sapiens) (P22607 23-806 limits assumed): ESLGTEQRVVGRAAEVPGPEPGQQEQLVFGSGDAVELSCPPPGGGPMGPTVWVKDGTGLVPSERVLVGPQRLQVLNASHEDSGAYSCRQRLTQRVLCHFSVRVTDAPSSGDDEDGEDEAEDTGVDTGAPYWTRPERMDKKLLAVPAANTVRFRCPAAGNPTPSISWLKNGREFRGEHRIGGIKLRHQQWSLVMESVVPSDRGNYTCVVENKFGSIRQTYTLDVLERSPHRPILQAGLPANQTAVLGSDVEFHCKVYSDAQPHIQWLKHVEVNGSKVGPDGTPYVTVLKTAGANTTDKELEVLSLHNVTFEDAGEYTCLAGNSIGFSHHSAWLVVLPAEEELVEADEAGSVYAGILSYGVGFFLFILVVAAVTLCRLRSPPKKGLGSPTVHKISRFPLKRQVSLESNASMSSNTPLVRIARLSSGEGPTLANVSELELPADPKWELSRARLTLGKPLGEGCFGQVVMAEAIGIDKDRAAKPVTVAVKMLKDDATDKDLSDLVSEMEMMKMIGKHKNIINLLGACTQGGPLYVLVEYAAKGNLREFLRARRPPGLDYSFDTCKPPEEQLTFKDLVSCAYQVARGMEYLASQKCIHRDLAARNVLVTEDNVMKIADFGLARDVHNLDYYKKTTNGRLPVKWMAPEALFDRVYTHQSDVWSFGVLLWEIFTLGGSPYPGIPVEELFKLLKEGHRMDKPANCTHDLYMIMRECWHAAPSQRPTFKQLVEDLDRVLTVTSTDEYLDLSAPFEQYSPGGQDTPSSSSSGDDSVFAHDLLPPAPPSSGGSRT

[12] = molecular target: TGF-beta receptor type-1 (Homo sapiens) (UniProt P36897); assay: Inhibition of recombinant activated human TGFBR1 (200 to end residues) at 1 uM using casein as substrate after 40 mins in presence of [gamma-33P]ATP by scintillation counting method
[13] = molecular target: Tyrosine-protein kinase Fyn (Homo sapiens) (UniProt P06241); assay: Inhibition of recombinant full-length human Fyn at 1 uM using KVEKIGEGTYGVVYK as substrate after 40 mins in presence of [gamma-33P]ATP by scintillation counting method
[14] = molecular target: Dual specificity mitogen-activated protein kinase kinase 1 (Homo sapiens) (UniProt Q02750); assay: Inhibition of recombinant full-length human MEK1 at 1 uM using inactive MAPK2 as substrate after 40 mins in presence of [gamma-33P]ATP by scintillation counting method
[15] = molecular target: Mitogen-activated protein kinase kinase kinase 10 (Homo sapiens) (UniProt Q02779); assay: Inhibition of recombinant human MLK2 (1 to 449 residues) at 1 uM using myelin basic protein as substrate after 40 mins in presence of [gamma-33P]ATP by scintillation counting method
Chain of Mitogen-activated protein kinase kinase kinase 10 (Homo sapiens) (Q02779 whole entry, looked up, the tested form may be a part): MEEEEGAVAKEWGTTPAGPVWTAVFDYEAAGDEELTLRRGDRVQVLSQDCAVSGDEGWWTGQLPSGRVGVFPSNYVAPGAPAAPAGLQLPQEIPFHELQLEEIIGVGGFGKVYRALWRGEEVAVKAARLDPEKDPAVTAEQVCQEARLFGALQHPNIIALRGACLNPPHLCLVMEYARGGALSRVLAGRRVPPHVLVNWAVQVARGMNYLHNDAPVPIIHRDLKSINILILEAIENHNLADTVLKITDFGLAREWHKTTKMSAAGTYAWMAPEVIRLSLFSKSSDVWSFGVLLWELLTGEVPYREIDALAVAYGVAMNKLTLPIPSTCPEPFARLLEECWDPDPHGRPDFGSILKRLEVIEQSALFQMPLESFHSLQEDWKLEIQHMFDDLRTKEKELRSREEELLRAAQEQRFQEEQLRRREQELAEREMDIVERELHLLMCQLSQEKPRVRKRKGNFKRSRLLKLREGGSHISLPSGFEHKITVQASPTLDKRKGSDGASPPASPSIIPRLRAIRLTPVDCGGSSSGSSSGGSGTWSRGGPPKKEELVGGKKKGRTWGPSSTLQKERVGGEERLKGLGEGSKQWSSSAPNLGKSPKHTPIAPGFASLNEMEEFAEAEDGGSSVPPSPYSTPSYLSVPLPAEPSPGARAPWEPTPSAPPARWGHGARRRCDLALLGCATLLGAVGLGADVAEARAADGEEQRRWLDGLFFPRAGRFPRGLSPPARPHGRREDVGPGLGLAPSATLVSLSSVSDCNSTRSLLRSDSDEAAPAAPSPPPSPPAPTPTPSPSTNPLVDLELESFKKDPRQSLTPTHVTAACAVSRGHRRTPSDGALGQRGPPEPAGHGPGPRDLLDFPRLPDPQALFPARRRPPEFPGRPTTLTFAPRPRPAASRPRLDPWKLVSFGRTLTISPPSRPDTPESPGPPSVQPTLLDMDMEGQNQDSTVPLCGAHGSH

[16] = molecular target: Calcium/calmodulin-dependent protein kinase type 1D (Homo sapiens) (UniProt Q8IU85); assay: Inhibition of recombinant full-length human CAMK1delta at 1 uM using […] after 40 mins in presence of [gamma-33P]ATP by scintillation counting method
[17] = molecular target: Glycogen synthase kinase-3 alpha (Homo sapiens) (UniProt P49840); assay: Inhibition of recombinant human GSK3alpha (2 to end residues) at 1 uM using YRRAAVPPSPSLSRHSSPHQS(p)EDEEE (phospho GS2 peptide) as substrate after 40 mins in presence of [gamma-33P]ATP by scintillation counting method
Chain of Glycogen synthase kinase-3 alpha (Homo sapiens) (P49840 2-483 limits assumed): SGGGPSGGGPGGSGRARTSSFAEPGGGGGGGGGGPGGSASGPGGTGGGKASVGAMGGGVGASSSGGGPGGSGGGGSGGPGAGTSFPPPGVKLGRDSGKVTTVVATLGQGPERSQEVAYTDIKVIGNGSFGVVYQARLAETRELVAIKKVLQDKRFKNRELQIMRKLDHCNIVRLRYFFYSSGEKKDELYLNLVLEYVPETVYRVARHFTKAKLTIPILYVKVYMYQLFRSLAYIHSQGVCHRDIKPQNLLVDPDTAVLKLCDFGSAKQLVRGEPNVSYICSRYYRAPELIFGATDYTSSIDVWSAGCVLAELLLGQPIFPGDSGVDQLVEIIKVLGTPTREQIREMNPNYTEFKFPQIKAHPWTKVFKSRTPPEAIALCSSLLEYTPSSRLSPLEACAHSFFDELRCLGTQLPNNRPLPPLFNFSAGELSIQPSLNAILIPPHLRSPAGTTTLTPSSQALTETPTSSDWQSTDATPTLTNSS

[18] = molecular target: Inhibitor of nuclear factor kappa-B kinase subunit epsilon (Homo sapiens) (UniProt Q14164); assay: Inhibition of recombinant full-length human IKKepsilon at 1 uM using casein as substrate after 40 mins in presence of [gamma-33P]ATP by scintillation counting method
[19] = molecular target: Serine/threonine-protein kinase ATR (Homo sapiens, UniProt Q13535); assay: Inhibition of human recombinant FLAG-tagged full length ATR expressed in mammalian cell line co-expressing human recombinant cMyc-tagged full length ATRIP
[20] = molecular target: Dual specificity tyrosine-phosphorylation-regulated kinase 1B (Homo sapiens) (UniProt Q9Y463); assay: Inhibition of recombinant full-length human DYRK1B at 1 uM using RRRFRPASPLRGPPK as substrate after 40 mins in presence of [gamma-33P]ATP by scintillation counting method
[21] = molecular target: Mast/stem cell growth factor receptor Kit (Homo sapiens) (UniProt P10721); assay: Inhibition of recombinant human cKit (544 to end residues) at 1 uM using poly(Glu,Tyr) 4:1 as substrate after 40 mins in presence of [gamma-33P]ATP by scintillation counting method
[22] = molecular target: Serine/threonine-protein kinase Sgk3 (Homo sapiens) (UniProt Q96BR1); assay: Inhibition of recombinant human SGK3 (119 to end residues) at 1 uM using GRPRTSSFAEGKK as substrate after 40 mins in presence of [gamma-33P]ATP by scintillation counting method
[23] = molecular target: Tyrosine-protein kinase Blk (Mus musculus) (UniProt P16277); assay: Inhibition of recombinant full-length mouse Blk at 1 uM using poly(Glu,Tyr) 4:1 as substrate after 40 mins in presence of [gamma-33P]ATP by scintillation counting method
[24] = molecular target: Testis-specific serine/threonine-protein kinase 1 (Homo sapiens) (UniProt Q9BXA7); assay: Inhibition of recombinant full-length human TSSK1 at 1 uM using KKKVSRSGLYRSPSMPENLNRPR as substrate after 40 mins in presence of [gamma-33P]ATP by scintillation counting method

**Q.** Which inhibition [1] does the source give for `CS(=O)(=O)c1ccc(-n2nc(-c3cnc4[nH]ccc4c3)c3c(N)ncnc32)cc1` here?
**A.** 72%

**Q.** And the inhibition [2]?
**A.** 25%

**Q.** What about the inhibition [3] of the same molecule?
**A.** 17%

**Q.** What about the inhibition [4] of the same molecule?
**A.** 4%

**Q.** And the inhibition [5]?
**A.** 7%

**Q.** What about the inhibition [6] of the same molecule?
**A.** -3%

**Q.** What about the inhibition [7] of the same molecule?
**A.** 4%

**Q.** What about the inhibition [8] of the same molecule?
**A.** 11%

**Q.** And the inhibition [9]?
**A.** -1%

**Q.** And the inhibition [10]?
**A.** 7%

**Q.** What about the inhibition [11] of the same molecule?
**A.** 5%

**Q.** And the inhibition [12]?
**A.** 76%

**Q.** And the inhibition [13]?
**A.** 90%

**Q.** And the inhibition [14]?
**A.** -1%

**Q.** And the inhibition [15]?
**A.** -1%

**Q.** And the inhibition [16]?
**A.** -8%

**Q.** And the inhibition [17]?
**A.** 17%

**Q.** What about the inhibition [18] of the same molecule?
**A.** 3%

**Q.** What about the IC50 [19] of the same molecule?
**A.** 66 nM

**Q.** What about the inhibition [20] of the same molecule?
**A.** -4%

**Q.** And the inhibition [21]?
**A.** 4%

**Q.** What about the inhibition [22] of the same molecule?
**A.** 12%

**Q.** And the inhibition [23]?
**A.** 12%

**Q.** And the inhibition [24]?
**A.** -8%
